Legend:
[1] = tested on: XBP1 splicing; experiment: XBP1 splicing in wild-type and Ire1-deficient MEF cells; format: cell-based, mouse; details: for XBP1 splicing: Ire1-deficient MEF cells; for IRE1-dependent XBP1 splicing: wild-type MEF cells
Procedure: To amplify the spliced and unspliced XBP1 mRNA, XBP1 primers were used as described previously.^21 PCR products were electrophoresed on 2.5% agarose gel. GAPDH (forward 5′[…]3′, reverse 5′[…]3′) was used as a loading control. The size difference between the spliced and the unspliced XBP1 is 26 nucleotides.
Compounds 474, 198, and 970 were selected as exemplary hits based on their selective IRE1-depedendent induction of DNAJB9, their EC50 of XBP1-RLuc activation of <3 μM and their high maximal activation of IRE1signaling measured by both XBP1s-RLuc activity and DNAJB9 expression (>50% that observed with Tg). […] However, this splicing was not observed in Ire1-deficient MEF cells, further confirming that these compounds increase XBP1 splicing by an IRE1-dependent mechanism.

[2] = tested on: stress-responsive signaling pathways; experiment: Gene Ontology and stress-responsive geneset analysis of RNAseq in HEK293T cells; format: cell-based, human
Procedure: (§1) Cells were lysed and total RNA collected using the RNeasy mini kit, according to manufacturer's instructions (Qiagen). Conventional RNA-seq was conducted via BGI Americas on the BGI Proprietary platform, providing single-end 50 bp reads at 20 million reads per sample. Alignment of sequencing data was done using DNAstar Lasergene SeqManPro to the GRCh37. p 13 human genome reference assembly, and assembly data were imported into ArrayStar 12.2 with QSeq (DNAStar Inc.) to quantify the gene expression levels and normalization to reads per kilobase per million (RPKM). Differential expression analysis and statistical significance calculations between different conditions was assessed using “DESeq” in R, compared to vehicle-treated cells, using a standard negative binomial fit of the RPKM data to generate Fold Change quantifications.

[3] = tested on: XBP1s; experiment: Overlap of compound-induced genes with dox-dependent XBP1s activation in HEK293DAX cells; format: cell-based, human
Procedure: as §1
These cells stably express both doxycycline (dox)-inducible XBP1s and trimethoprim (TMP) regulated DHFR.ATF6, allowing stress-independent activation of XBP1s and/or ATF6 signaling through addition of the activating ligands dox or TMP, respectively^8.

[4] = tested on: secreted Aβ; experiment: Aβ ELISA of media conditioned on CHO 7PA2 cells (V717F APP); format: cell-based; details: CHO 7PA2, 10 μM
Procedure: FIGS. 5A-5D. […] Cells were treated for 18 hours, media was then replaced and conditioned in the presence of treatments for 24 hours before harvesting for ELISA assay. Error bars represent SEM for n=3 replicates. Statistics calculated from one-tailed Student's t-test. *p<0.05, **p<0.01, ***p<0.001 (FIG. 5A). Quantification of media and lysate immunoblots from 474 treatment (10 μM) of APP. Error bars represent Standard Deviation for n=3 replicates. Statistics calculated from one-tailed Student's t-test. *p<0.05, **p<0.01 ***p<0.001 (FIG. 5B). Plot showing fraction of total remaining APP at each time point after S35 metabolic labeling of newly synthesized protein, accounting for the sum of APP in lysate and media. Error bars represent Standard Deviation for n=3 replicates. Statistics calculated from one-tailed Student's t-test. *p<0.05, **p<0.01, ***p<0.001 (FIG. 5C). Plot showing fraction of secreted APP collected at 2 hours after metabolic labeling. Error bars represent Standard Deviation for n=3 replicates. Statistics calculated from one-tailed Student's t-test. *p<0.05, **p<0.01, ***p<0.001 (FIG. 5D).
(§2) 7PA2 or 7WD10 cells were cultured on 96-well plates (Corning) and treated with IRE1 activating compounds +/−4 μ8c overnight. The medium was then replaced at 50% volume with treatment remaing, culture medium was collected after 24 hours. The medium was analyzed by an AP ELISA as follows. Monoclonal 6E10 anti-Aβ(residues 1-17) mouse IgG1, (Biolegend) was coated in […] carbonate buffer, pH 9.6, at 4° C. overnight on high binding assay black plates (Costar), washed with TBST (tris buffered saline with 0.05% Tween 20) and blocked with 5% non-fat milk in TBST. Samples and standards (condition 7PA2 media) were incubated for 1.5 hr, followed by addition of 4G8 antibody [anti-Aβ residues 17-24, mouse IgG2b (Biolegend)] conjugated to horseradish peroxidase (hrp) and incubated for 1.5 hr at 25° C. After washing, ABM substrate was added, followed by detection with an absorbance plate reader.
(§3) ELISA was used to monitor Aβ in media conditioned on a CHO cell line stably expressing the destabilized, disease-associated V717F APP mutant (CHO^7PA2)^45 treated with or without compounds 198, 474, and 970. […] The reduction in A secretion can be attributed to IRE1 activation because the reduced extracellular accumulation of Aβ is blocked by co-treatment with the active site IRE1 inhibitor 4 μ8c (FIG. 5A).

[5] = tested on: CHO 7PA2 cells; experiment: CHO 7PA2 viability; format: cell-based
[6] = tested on: extracellular Aβ; experiment: Aβ in media conditioned on CHO 7WD10 cells (wild-type APP); format: cell-based; details: CHO 7WD10, APP WT
Procedure: as §2, §3

[7] = tested on: CHO 7WD10 cells; experiment: CHO 7WD10 viability; format: cell-based

| SMILES | XBP1 splicing [1] | IRE1-dependent XBP1 splicing [1] | Gene Ontology analysis of induced genes [2] | activation of other stress responsive signaling pathways apart from IRE1/XBP1s [2] | overlap of genes induced >1.2 fold with dox-dependent XBP1s activation [3] | Aβ in conditioned media relative to control conditioned media [4] [%] | CHO 7PA2 viability [5] | extracellular Aβ in conditioned media [6] | cellular viability [7] | induction of most non-overlapping genes [3] [fold] | top 100 induced genes overlapping with genes induced by dox-dependent XBP1s activation [3] |
| --- | --- | --- | --- | --- | --- | --- | --- | --- | --- | --- | --- |
| CCOC(CNC(=O)C1CCCN(Cc2nc(-c3ccc(Cl)cc3)oc2C)C1)OCC (stereo not drawn) [Compound 198] | not observed | increased | primarily induce expression of genes annotated with GO terms related to ER stress and the UPR | to a lesser extent | less overlap | 50 | did not significantly influence | reduced extracellular Aβ | without impacting cellular viability | – | – |
| O=C(CN(Cc1ccc(Cl)cc1)S(=O)(=O)c1cccnc1)N1CCc2ccccc21 [Compound 970] | not observed | increased | primarily induce expression of genes annotated with GO terms related to ER stress and the UPR | do not significantly activate | > 60% | 50 | did not significantly influence | reduced extracellular Aβ | without impacting cellular viability | < 1.3 | majority |
| Cc1ccc(OCCN(C)C(=O)Cn2cc(NC(=O)CCOc3ccccc3)cn2)cc1 [Compound 474] | not observed | increased | primarily induce expression of genes annotated with GO terms related to ER stress and the UPR | do not significantly activate | > 80% | 50 | did not significantly influence | reduced extracellular Aβ | without impacting cellular viability | – | majority |

— patent publication US11426402B2, “IRE1 activating compounds for use in therapy” (The Scripps Research Institute, priority 2019, dated 2022)
